The source of these data is patent publication US20220073496A1, “NOVEL QUINOLINE DERIVATIVE INHIBITOR” (Nanjing Transthera Biosciences Co., Ltd., priority 2018, published 2022).

Molecules are shown by their SMILES. Bounds are passed on as bounds.

The target of the assay is T1, H1299 cell pAxl (Homo sapiens, UniProt P30530).
T1 construct: endogenous in cells; host or cells: H1299
T1 sequence (P30530 26-894): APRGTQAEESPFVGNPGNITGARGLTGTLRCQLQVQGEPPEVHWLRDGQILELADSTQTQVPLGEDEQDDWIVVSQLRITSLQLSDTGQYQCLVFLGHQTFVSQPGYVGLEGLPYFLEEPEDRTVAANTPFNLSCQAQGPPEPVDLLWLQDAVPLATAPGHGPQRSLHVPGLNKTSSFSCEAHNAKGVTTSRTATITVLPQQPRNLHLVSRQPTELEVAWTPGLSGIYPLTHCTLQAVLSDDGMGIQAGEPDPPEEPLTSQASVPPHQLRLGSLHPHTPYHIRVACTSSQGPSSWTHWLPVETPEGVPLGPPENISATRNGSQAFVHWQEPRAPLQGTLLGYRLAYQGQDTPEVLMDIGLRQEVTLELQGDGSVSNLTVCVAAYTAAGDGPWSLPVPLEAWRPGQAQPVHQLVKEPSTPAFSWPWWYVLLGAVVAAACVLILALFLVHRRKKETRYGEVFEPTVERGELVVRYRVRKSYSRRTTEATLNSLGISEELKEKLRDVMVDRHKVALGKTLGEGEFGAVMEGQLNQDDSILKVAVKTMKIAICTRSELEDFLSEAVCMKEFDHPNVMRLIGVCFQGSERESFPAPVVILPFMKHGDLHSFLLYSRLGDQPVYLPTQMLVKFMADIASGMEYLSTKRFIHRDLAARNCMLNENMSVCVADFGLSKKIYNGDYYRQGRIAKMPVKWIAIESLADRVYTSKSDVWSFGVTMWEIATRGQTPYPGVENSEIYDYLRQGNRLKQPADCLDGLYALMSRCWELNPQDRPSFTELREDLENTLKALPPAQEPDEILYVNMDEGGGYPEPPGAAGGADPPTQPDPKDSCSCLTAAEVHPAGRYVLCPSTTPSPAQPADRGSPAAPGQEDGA
Kind of assay: Inhibitory activity on the cell pAxl (Western Blot). It counts as cell-based. Particulars: H1299 cells, compound 1.1, 3.3, 10, 30 nM, hGAS6 200 ng/mL. Here is the method: Assay 5: Test for Inhibitory Activities of the Compounds of the Present Invention on the Cell pAxl
H1299 is a non-small cell lung cancer cell.
Test substances: the compounds of the present invention, wherein the structures thereof were as described above.
Test equipment: protein electrophoresis apparatus (manufactured by Bio Rad), transfer unit (manufactured by Bio Rad), exposure unit (manufactured by Tanon), CO2, cell incubator (manufactured by Thermo).
The H1299 cells were inoculated in a 6-well plate (containing 10% FBS 1640 medium, 5×10^5 cells per well), and adherent cells were cultivated at 37° C. in a 5% CO2 condition for 18 hours. The cells were starved overnight. Different concentrations of compounds were added. The final compound concentrations were 1.1, 3.3, 10, and 30 nM, and the final DMSO content was 1‰. The negative control wells contained the medium containing 1‰ DMSO. After incubating at 37° C. in a 5% CO2 condition for 60 minutes, hGAS6 (R&D, final concentration 200 ng/mL) was added to each well. After further incubating for 60 minutes, the cell total protein was extracted for Western Blot and the […] values were calculated using GraphPad 5.0 software. The inhibitory activity of the compound on the cell pAxl was examined.
On to `COc1cc2nccc(Oc3cnc(NC(=O)c4cn(C(C)C)cc(-c5ccc(F)cc5)c4=O)nc3)c2cc1OC` [Compound 20, N-(5-((6,7-dimethoxyquinolin-4-y)oxy)pyrimidine-2-yl)-5-(4-fluorophenyl)-1-isopropyl-4-oxo-1,4-dihydropyridin-3-carboxamide], for which the IC50 is below 1.1 nM.

In turn, `COc1cc2nccc(Oc3cnc(NC(=O)c4cn(C5CC5)nc(-c5ccc(F)cc5)c4=O)nc3)c2cc1OC` [Compound 45, 2-cyclopropyl-N-(5-((6,7-dimethoxyquinolin-4-yl)oxy)pyrimidine-2-yl)-6-(4-fluorophenyl)-5-oxo-2,5-dihydropyridazine-4-carboxamide] gave an IC50 of 1.1 nM. With `COc1cc2nccc(Oc3ccc(NC(=O)c4cn(C(C)C)nc(-c5ccc(F)cc5)c4=O)nc3)c2cc1OC` [Compound 41, N-(5-((6,7-dimethoxyquinolin-4-yl)oxy)pyridin-2-yl)-6-(4-fluorophenyl)-2-isopropyl-5-oxo-2,5-dihydropyridazine-4-carboxamide], the IC50 was below 10 nM. As to `COc1cc2nccc(Oc3cnc(NC(=O)c4nn(C(C)C)cc(-c5ccc(F)cc5)c4=O)nc3)c2cc1OC` [Compound 16, N-(5-((6,7-dimethoxyquinolin-4-yl)oxy)pyrimidine-2-yl)-5-(4-fluorophenyl)-1-isopropyl-4-oxo-1,4-dihydropyridazine-3-carboxamide], the IC50 was below 1.1 nM. The compound `COc1cc2nccc(Oc3cnc(NC(=O)c4cn(C5CC5)cc(-c5ccc(F)cc5)c4=O)nc3)c2cc1OC` [Compound 32, 1-cyclopropyl-N-(5-((6,7-dimethoxyquinolin-4-yl)oxy)pyrimidine-2-yl)-5-(4-fluorophenyl)-4-oxo-1,4-dihydropyridin-3-carboxamide] returned a 50% inhibitory concentration (IC50) below 1.1 nM.

With `COc1cc2nccc(Oc3ccc(NC(=O)c4nn(C(C)C)cc(-c5ccc(F)cc5)c4=O)cn3)c2cc1OC` [Compound 29, N-(6-((6,7-dimethoxyquinolin-4-yl)oxy)pyridin-3-yl)-1-isopropyl-4-oxo-5-para-fluorophenyl-1,4-dihydropyridazine-3-carboxamide], the IC50 is below 1.1 nM. Compound `COc1cc2nccc(Oc3ccc(NC(=O)c4cn(C5CC5)nc(-c5ccc(F)cc5)c4=O)cn3)c2cc1OC` [Compound 43, 2-cyclopropyl-N-(6-((6,7-dimethoxyquinolin-4-yl)oxy)pyridin-3-yl)-6-para-fluorophenyl-5-oxo-2,5-dihydropyridazine-4-carboxamide] had an IC50 of 3.3 nM.

The compound `COc1cc2nccc(Oc3ccc(NC(=O)c4cn(C5CC5)cc(-c5ccc(F)cc5)c4=O)nc3)c2cc1OC` [Compound 30, N-(5-((6,7-dimethoxyquinolin-4-yl)oxy)pyridin-2-yl)-1-cyclopropyl-4-oxo-5-para-fluorophenyl-1,4-hydropyridin-3-carboxamide] gave an IC50 below 1.1 nM. Then `COc1cc2nccc(Oc3ccc(NC(=O)c4nn(C5CC5)cc(-c5ccc(C)cc5)c4=O)nc3)c2cc1OC` [Compound 46, 1-cyclopropyl-N-(5-((6,7-dimethoxyquinolin-4-yl)oxy)pyridin-2-yl)-4-oxo-5-p-tolyl-1,4-dihydropyridazine-3-carboxamide], with below 1.1 nM; and `COc1cc2nccc(Oc3ccc(NC(=O)c4cn(C5CC5)nc(-c5ccc(F)cc5)c4=O)nc3)c2cc1OC` [Compound 42, 2-cyclopropyl-N-(5--((6,7-dimethoxyquinolin-4-yl)oxy)pyridin-2-yl)-6-(4-fluorophenyl)-5-oxo-2,5-dihydropyridazine-4-carboxamide], with 1.1 to 3.3 nM; and `COc1cc2nccc(Oc3ccc(NC(=O)c4cn(C(C)C)cc(-c5ccc(C)cc5)c4=O)nc3)c2cc1OC` [Compound 1, N-(5-((6,7-dimethoxyquinolin-4-yl)oxy)pyridin-2-yl)-1-isopropyl-4-oxo-5-p-tolyl-1,4-dihydropyridin-3-carboxamide], with below 1.1 nM.
